From US10000507B2, “Furo- and thieno-pyridine carboxamide compounds useful as pim kinase inhibitors” (Incyte Corporation, priority 2013, dated 2018)
pIC50: −log10 of the molar value.

Key:
Format in all cases: biochemical
[1] = molecular target: Pim-3 (Homo sapiens (Human), UniProt Q86V86); experiment: Pim-3 kinase assay; details: 1 mM ATP, biotin-labeled BAD peptide substrate; read-out: Pim3 IC50
Method in brief: (§1)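 Biotin-BAD peptide ([…]) phosphorylated with 1 mM ATP by 2.5 pM Pim-1 or 1.25 pM Pim-3, 1 h at 25 °C in Tris pH 7.5, MgCl2, DTT buffer. EDTA stop with anti-phospho-BAD (Ser112) antibody and AlphaScreen streptavidin donor/Protein-A acceptor beads; signal read after 1 h dark incubation.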

[2] = molecular target: Pim-2 (Homo sapiens (Human), UniProt Q9P1W9); experiment: Pim-2 kinase assay; details: 1 mM ATP, fluorescein-labeled CREBtide peptide substrate; read-out: Pim2 IC50
Method in brief: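 TR-FRET assay: 1 nM Pim-2 with 0.05 μM fluorescein-CREBtide and 1 mM ATP in Tris pH 7.5, 5 mM MgCl2, 5 mM DTT, 2 h at 25 °C. EDTA stop, then Tb-anti-pCREB Ser133 antibody for 30 min before reading.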

[3] = molecular target: Pim-1 (Homo sapiens (Human), UniProt P11309); experiment: Pim-1 kinase assay; details: 1 mM ATP, biotin-labeled BAD peptide substrate; read-out: Pim1 IC50
Method in brief: as §1

Sequence of Pim-2 (Q9P1W9 whole entry): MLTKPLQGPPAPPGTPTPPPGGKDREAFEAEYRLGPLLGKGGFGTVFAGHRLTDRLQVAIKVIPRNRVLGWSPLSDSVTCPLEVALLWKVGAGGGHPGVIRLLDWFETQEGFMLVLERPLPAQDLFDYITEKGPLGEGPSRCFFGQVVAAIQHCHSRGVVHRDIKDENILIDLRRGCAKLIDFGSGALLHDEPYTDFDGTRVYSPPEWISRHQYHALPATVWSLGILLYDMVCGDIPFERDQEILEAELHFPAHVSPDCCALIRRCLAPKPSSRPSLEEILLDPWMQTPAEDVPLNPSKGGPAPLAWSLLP
Sequence of Pim-1 (P11309 whole entry): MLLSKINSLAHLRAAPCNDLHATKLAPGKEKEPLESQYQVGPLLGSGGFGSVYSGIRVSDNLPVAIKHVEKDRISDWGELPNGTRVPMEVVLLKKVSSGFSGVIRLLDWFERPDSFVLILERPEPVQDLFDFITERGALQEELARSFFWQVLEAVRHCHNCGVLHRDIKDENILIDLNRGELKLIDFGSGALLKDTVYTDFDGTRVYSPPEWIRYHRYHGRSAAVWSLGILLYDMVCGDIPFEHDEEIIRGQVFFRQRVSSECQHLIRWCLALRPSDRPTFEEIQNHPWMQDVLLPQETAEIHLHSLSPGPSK

| Structure (SMILES) | pIC50 [1] | pIC50 [2] | pIC50 [3] |
| --- | --- | --- | --- |
| CCCc1cnc2c(C(=O)Nc3cncc(C)c3N3C[C@@H](N)[C@H](O)[C@@H](C)C3)c(N)oc2c1 [Example 77, 2-Amino-N-{5-methyl-4-[(3R,4R,5S)-3-amino-4-hydroxy-5-methylpiperidin-1-yl]pyridin-3-yl}-6-propylfuro[3,2-b]pyridine-3-carboxamide] | ≥ 8.00 | ≥ 8.00 | ≥ 8.00 |
| Cc1cncc(NC(=O)c2c(N)oc3cc(Cl)cnc23)c1N1C[C@@H](N)[C@H](O)[C@@H](C)C1 [Example 78, 2-Amino-N-{5-methyl-4-[(3R,4R,5S)-3-amino-4-hydroxy-5-methylpiperidin-1-yl]pyridin-3-yl}-6-chlorofuro[3,2-b]pyridine-3-carboxamide] | ≥ 8.00 | 7.00 to 8.00 | ≥ 8.00 |
| Cc1cncc(NC(=O)c2c(N)oc3cc(C(F)(F)F)cnc23)c1N1C[C@@H](N)[C@H](O)[C@@H](C)C1 [Example 79, 2-Amino-N-{5-methyl-4-[(3R,4R,5S)-3-amino-4-hydroxy-5-methylpiperidin-1-yl]pyridin-3-yl}-6-(trifluoromethyl)-furo[3,2-b]pyridine-3-carboxamide] | ≥ 8.00 | 7.00 to 8.00 | ≥ 8.00 |
| CCCc1cnc2c(C(=O)Nc3cnccc3N3CC[C@@H](F)[C@H](N)C3)c(N)oc2c1 [Example 80, 2-Amino-N-{4-[(3R,4R)-3-amino-4-fluoro-piperidin-1-yl]pyridin-3-yl}-6-propylfuro[3,2-b]pyridine-3-carboxamide] | ≥ 8.00 | 6.00 to 7.00 | ≥ 8.00 |
| Nc1oc2c(Cl)ccnc2c1C(=O)Nc1cnccc1N1CCC[C@H](N)C1 [Example 81, 2-Amino-N-{4-[(3S)-3-aminopiperidin-1-yl]pyridin-3-yl}-7-chloro-furo[3,2-b]pyridine-3-carboxamide] | ≥ 8.00 | ≥ 8.00 | ≥ 8.00 |
| CCCc1cnc2c(C(=O)Nc3cnccc3N3C[C@@H](N)[C@H](O)[C@@H](C4CC4)C3)c(N)oc2c1 [Example 82, 2-Amino-N-{4-[(3R,4R,5S)-3-amino-5-cyclopropyl-4-hydroxypiperidin-1-yl]pyridin-3-yl}-6-propylfuro[3,2-b]pyridine-3-carboxamide] | ≥ 8.00 | ≥ 8.00 | ≥ 8.00 |
| C[C@H]1C[C@@H](c2ccncc2NC(=O)c2c(N)oc3cccnc23)C[C@@H](N)[C@]1(C)O [Example 83, 2-Amino-N-(4-((1R,3R,4R,5S)-3-amino-4-hydroxy-4,5-dimethylcyclohexyl)pyridin-3-yl)furo[3,2-b]pyridine-3-carboxamide] | ≥ 8.00 | 6.00 to 7.00 | ≥ 8.00 |
| CCCc1cnc2c(C(=O)Nc3cnccc3[C@H]3C[C@@H](N)[C@](C)(O)[C@@H](C)C3)c(N)oc2c1 [Example 84, 2-Amino-N-(4-((1R,3R,4R,5S)-3-amino-4-hydroxy-4,5-dimethylcyclohexyl)pyridin-3-yl)-6-propylfuro[3,2-b]pyridine-3-carboxamide] | ≥ 8.00 | 7.00 to 8.00 | ≥ 8.00 |
| CCCc1cnc2c(C(=O)Nc3cnccc3N3C[C@@H](N)[C@](C)(O)[C@@H](C)C3)c(N)oc2c1 [Example 85, 2-Amino-N-{4-[(3R,4R,5S)-3-amino-4-hydroxy-4,5-dimethylpiperidin-1-yl]pyridin-3-yl}-6-propylfuro[3,2-b]pyridine-3-carboxamide] | ≥ 8.00 | ≥ 8.00 | ≥ 8.00 |
| CCCc1cnc2c(C(=O)Nc3cnccc3N3C[C@@H](N)[C@@](C)(O)[C@@H](C)C3)c(N)oc2c1 [Example 86, 2-Amino-N-{4-[(3R,4S,5S)-3-amino-4-hydroxy-4,5-dimethylpiperidin-1-yl]pyridin-3-yl}-6-propylfuro[3,2-b]pyridine-3-carboxamide] | ≥ 8.00 | ≥ 8.00 | ≥ 8.00 |
| Nc1sc2cccnc2c1C(=O)Nc1cnsc1N1CCC[C@H](N)C1 [Example 88, 2-Amino-N-{5-[(3S)-3-aminopiperidin-1-yl]isothiazol-4-yl}thieno[3,2-b]pyridine-3-carboxamide] | ≥ 8.00 | 6.00 to 7.00 | ≥ 8.00 |
| CC(C)c1cnc2c(C(=O)Nc3cnccc3N3C[C@@H](N)[C@H](O)[C@@H](C4CC4)C3)c(N)oc2c1 [Example 89, 2-Amino-N-{4-[(3R,4R,5S)-3-amino-5-cyclopropyl-4-hydroxypiperidin-1-yl]pyridin-3-yl}-6-isopropylfuro[3,2-b]pyridine-3-carboxamide] | ≥ 8.00 | ≥ 8.00 | ≥ 8.00 |
| Cn1ncc(NC(=O)c2c(N)oc3cc(C4CCOCC4)cnc23)c1N1C[C@@H](N)C[C@@H](C(F)(F)F)C1 [Example 90, 2-Amino-N-{5-[(3S,5R)-3-amino-5-(trifluoromethyl)piperidin-1-yl]-1-methyl-1H-pyrazol-4-yl}-6-(tetrahydro-2H-pyran-4-yl)furo[3,2-b]pyridine-3-carboxamide] | ≥ 8.00 | 7.00 to 8.00 | ≥ 8.00 |
| Nc1oc2cc(C3CCOCC3)cnc2c1C(=O)Nc1cnsc1N1C[C@@H](N)C[C@@H](C(F)(F)F)C1 [Example 91, 2-Amino-N-{5-[(3S,5R)-3-amino-5-(trifluoromethyl)piperidin-1-yl]isothiazol-4-yl}-6-(tetrahydro-2H-pyran-4-yl)furo[3,2-b]pyridine-3-carboxamide] | ≥ 8.00 | 7.00 to 8.00 | ≥ 8.00 |
| Nc1oc2cc(C3CCOCC3)cnc2c1C(=O)Nc1cnccc1N1C[C@@H](N)C[C@@H](C(F)(F)F)C1 [Example 92, 2-Amino-N-{4-[(3S,5R)-3-amino-5-(trifluoromethyl)piperidin-1-yl]pyridin-3-yl}-6-(tetrahydro-2H-pyran-4-yl)furo[3,2-b]pyridine-3-carboxamide] | ≥ 8.00 | ≥ 8.00 | ≥ 8.00 |
| CN1CCC(c2cnc3c(C(=O)Nc4cnccc4N4C[C@@H](N)C[C@@H](C(F)(F)F)C4)c(N)oc3c2)CC1 [Example 93, 2-Amino-N-{4-[(3S,5R)-3-amino-5-(trifluoromethyl)piperidin-1-yl]pyridin-3-yl}-6-(1-methylpiperidin-4-yl)furo[3,2-b]pyridine-3-carboxamide] | ≥ 8.00 | 7.00 to 8.00 | ≥ 8.00 |
| CN1CCC(c2cnc3c(C(=O)Nc4cnn(C)c4N4C[C@@H](N)C[C@@H](C(F)(F)F)C4)c(N)oc3c2)CC1 [Example 94, 2-Amino-N-{5-[(3S,5R)-3-amino-5-(trifluoromethyl)piperidin-1-yl]-1-methyl-1H-pyrazol-4-yl}-6-(1-methylpiperidin-4-yl)furo[3,2-b]pyridine-3-carboxamide] | ≥ 8.00 | 7.00 to 8.00 | ≥ 8.00 |
| C[C@@H]1C[C@H](N)CN(c2ccncc2NC(=O)c2c(N)oc3cc(C4CCOCC4)cnc23)C1 [Example 95, 2-Amino-N-{4-[(3S,5R)-3-amino-5-methylpiperidin-1-yl]pyridin-3-yl}-6-(tetrahydro-2H-pyran-4-yl)furo[3,2-b]pyridine-3-carboxamide] | ≥ 8.00 | 7.00 to 8.00 | ≥ 8.00 |
| C[C@@H]1C[C@H](N)CN(c2sncc2NC(=O)c2c(N)oc3cc(C4CCOCC4)cnc23)C1 [Example 96] | ≥ 8.00 | 7.00 to 8.00 | ≥ 8.00 |
| C[C@@H]1C[C@H](N)CN(c2ccncc2NC(=O)c2c(N)oc3cc(C4CCC4)cnc23)C1 [Example 97, 2-Amino-N-{4-[(3S,5R)-3-amino-5-methylpiperidin-1-yl]pyridin-3-yl}-6-cyclobutylfuro[3,2-b]pyridine-3-carboxamide] | ≥ 8.00 | ≥ 8.00 | ≥ 8.00 |
| Nc1oc2cc(C3CCC3)cnc2c1C(=O)Nc1cnccc1N1C[C@@H](N)C[C@@H](C(F)(F)F)C1 [Example 98, 2-Amino-N-{4-[(3S,5R)-3-amino-5-(trifluoromethyl)piperidin-1-yl]pyridin-3-yl}-6-cyclobutylfuro[3,2-b]pyridine-3-carboxamide] | ≥ 8.00 | ≥ 8.00 | ≥ 8.00 |
| Nc1oc2cc(CN3CC(F)C3)cnc2c1C(=O)Nc1cnccc1N1C[C@@H](N)C[C@@H](C(F)(F)F)C1 [Example 99, 2-Amino-N-{4-[(3S,5R)-3-amino-5-(trifluoromethyl)piperidin-1-yl]pyridin-3-yl}-6-[(3-fluoroazetidin-1-yl)methyl]furo[3,2-b]pyridine-3-carboxamide] | ≥ 8.00 | 7.00 to 8.00 | ≥ 8.00 |
| Nc1oc2cc(CN3CC(F)(F)C3)cnc2c1C(=O)Nc1cnccc1N1C[C@@H](N)C[C@@H](C(F)(F)F)C1 [Example 100, 2-Amino-N-{4-[(3S,5R)-3-amino-5-(trifluoromethyl)piperidin-1-yl]pyridin-3-yl}-6-[(3,3-difluoroazetidin-1-yl)methyl]furo[3,2-b]pyridine-3-carboxamide] | ≥ 8.00 | 7.00 to 8.00 | ≥ 8.00 |
| Nc1oc2cc(CN3CC(O)C3)cnc2c1C(=O)Nc1cnccc1N1C[C@@H](N)C[C@@H](C(F)(F)F)C1 [Example 101, 2-Amino-N-{4-[(3S,5R)-3-amino-5-(trifluoromethyl)piperidin-1-yl]pyridin-3-yl}-6-[(3-hydroxyazetidin-1-yl)methyl]furo[3,2-b]pyridine-3-carboxamide] | ≥ 8.00 | 7.00 to 8.00 | ≥ 8.00 |
